Read-outs that look alike come from different tables or passages of the source.

This data set is described as follows: Ames test (ISO/FDIS 7405), mutagenicity test. The data set is classed as cell-based. The source says: The improved toxicity is manifested, for example, in a lower mutagenicity.

Turning to `C[Si](CCC1CCC2OC2C1)(CCC1CCC2OC2C1)c1ccccc1` (stereo not drawn) [methylbis[2-(7-oxabicyclo[4.1.0]hept-3-yl)ethyl]phenyl-silane], the “Ames test (ISO/FDIS 7405)” value was “negative”. As for `C[Si](C)(CC1CCC2OC2C1)CC1CCC2OC2C1` (stereo not drawn) [dimethylbis[2-(7-oxabicyclo[4.1.0]hept-3-yl)methyl]-silane], the “Ames test (ISO/FDIS 7405)” value is listed as “negative”. In the case of `O=C(OCC1CCC2OC2C1)C1CCC2OC2C1` (stereo not drawn) [3,4-epoxycyclohexylmethyl 3,4-epoxycyclohexanecarboxylate, reference compound], the “Ames test (ISO/FDIS 7405)” value (mutagenicity) is on record as “positive”.

The values above are taken from patent US6779656B2, “Polymerizable preparations based on epoxides that contain silicon” (3M Espe AG, priority 2000, dated 2004).
